The target in series [1] is T1, hNav1.5 (Homo sapiens, UniProt Q14524).
T1 construct: CYL6004QP2DR
The experiment in a line: Nav1.5 human sodium ion channel cell based automated patch clamp assay (QPatch HT). To be noted: Antagonist. On the procedure: Electrophysiological assays were conducted to profile five compounds for activities on the ion channel target using the QPatch HT electrophysiological platform.
CYL6004QP2DR Nav1.5 Human Sodium Ion Channel Cell Based Automated Patch Clamp Assay. Cells were held at −120 mV for 100 ms, stepped to −130 mV for 100 ms, and stepped back to −120 mV for 100 ms to measure the leak current. Na channels exist in a) resting or closed state at −120 mV, b) a transient open state that inactivates to c) inactivated state at −10 mV. Na current inhibition within 1-2 ms of channel opening at −10 mV is open channel inhibition (pulse 1). […] Pulse 1 and 2 are used to investigate drug binding to the open state and inactivated state of the Na channels, respectively. Each concentration of compound was applied for 5 minutes.
Current amplitudes more than 200 pA at the control stage were analyzed. The amplitude of the current was calculated by measuring the difference between the peak inward current on stepping to −10 mV (i.e. peak of the current) and remaining current at the end of the step. The current was assessed in vehicle control conditions and then at the end of each five (5) minute compound application.

The nature of series [2]: Metabolic stability in human liver S9. Type of series: in vitro ADME. The following applies: 1 μM in Human liver S9 fractions; for half-life at 1 μM / microsomal CLint at 1 μM: pH 7.2; for microsomal CLint at 1 μM: read-out: CLint(mic.). The method, then: (§1) Incubation Buffer (PBK): 50 mM potassium phosphate buffer was prepared from 1 M potassium phosphate buffer, pH 7.2. […] The dilution of […] was prepared by 90% methanol/10% DMSO, then 10 μM working solutions were prepared by diluting the 0.1 mM intermediates with 50 mM PBK. […] Prior to use, the stock solutions were brought to room temperature and thoroughly mixed. […] Cofactors Solutions: the mixture of cofactors solution was made at 10 mM of NADPH and 10 mM of UDPGA in PBK buffer.
(§2) The incubation was carried out in 96-well plates. The liver S9 working solutions were added to 96-well plates (80 μL/well) in duplicate. […] Reaction was initiated by adding cofactor mixture 10 μL/well. The plates were incubated at 37° C. in a water bath with shaking. […] The final organic solvent content in the incubation was ≤1%.
(§3) At specified time points, i.e., 5, 10, 20, 30 and 60 minutes, NCF60 (without adding NADPH (Nicotinamide-adenine dinucleotide phosphate, reduced form) and UDPGA (Uridine 5′-diphosphoglucuronic acid trisodium salt) replaced with PBK buffer reaction was stopped by adding three volumes of stop solution. The time zero (To) samples were prepared by adding three volumes of stop solution to liver S9 samples, followed by addition of test article or control, and cofactor mixture solution 10 μL/well.
(§4) Subsequently, 100 μL of supernatant.
(§5) Positive controls: 7-ethoxycoumarin and 7-hydroxycoumarin.

Series [3] is described as follows: Cellular and nuclear receptor functional assays. Type of series: cell-based. The following applies: human recombinant (CHO cells); for Kb: apparent dissociation constant, modified Cheng Prusoff equation, read-out: kB, 5-HT2B(h) (antagonist effect); for pIC50: serotonin (30 nM), IP1, HTRF, read-out: IC50, 5-HT2B(h) (antagonist effect). The method, then:
A study was conducted to test 5 compounds in cellular and nuclear receptor functional and enzyme and uptake assays.
The results are expressed as a percent of control agonist response or inverse agonist response and as a percent inhibition of control agonist response
The EC50 values (concentration producing a half-maximal response) and IC50 values (concentration causing a half-maximal inhibition of the control agonist response) were determined by non-linear regression analysis of the concentration-response curves generated with mean replicate values using Hill equation curve fitting […]
where Y=response, A=left asymptote of the curve, D=right asymptote of the curve, C=compound concentration, and C50=EC50 or IC50, and nH=slope factor. This analysis was performed using software developed at Cerep (Hill software) and validated by comparison with data generated by the commercial software SigmaPlot® 4.0 for Windows® (© 1997 by SPSS Inc.).
For the antagonists, the apparent dissociation constants (KB) were calculated using the modified Cheng Prusoff equation where A=concentration of reference agonist in the assay, and EC50A=EC50 value of the reference agonist.
In Vitro Pharmacology. Results showing an inhibition (or stimulation for assays run in basal conditions) higher than 50% were considered to represent significant effects of the test compounds. Results showing an inhibition (or stimulation) between 25% and 50% are indicative of weak to moderate effects. Results showing an inhibition (or stimulation) lower than 25% were not considered significant and mostly attributable to variability of the signal around the control level.
On the technique in general: Time-resolved FRET reads energy transfer from a long-lived donor to a nearby acceptor.

The nature of series [4]: Metabolic stability in dog liver S9. Type of series: in vitro ADME, Beagle dog. The following applies: 1 μM in Beagle Dog liver S9 fractions; for half-life at 1 μM / microsomal CLint at 1 μM: pH 7.2; for microsomal CLint at 1 μM: read-out: CLint(mic.). On the procedure: as §1, §2, §3, §4, §5
Where [5] appears, read: Pulse 1 (open state), read-out: Estimated IC50 (Pulse 1).
The mark [6] stands for this setting: Pulse 2 (inactivated state), read-out: Estimated IC50 (Pulse 2).

pIC50: −log10 of the molar value. Like-named read-outs stand apart in the source and are kept apart here.

T1 sequence (Q14524 whole entry): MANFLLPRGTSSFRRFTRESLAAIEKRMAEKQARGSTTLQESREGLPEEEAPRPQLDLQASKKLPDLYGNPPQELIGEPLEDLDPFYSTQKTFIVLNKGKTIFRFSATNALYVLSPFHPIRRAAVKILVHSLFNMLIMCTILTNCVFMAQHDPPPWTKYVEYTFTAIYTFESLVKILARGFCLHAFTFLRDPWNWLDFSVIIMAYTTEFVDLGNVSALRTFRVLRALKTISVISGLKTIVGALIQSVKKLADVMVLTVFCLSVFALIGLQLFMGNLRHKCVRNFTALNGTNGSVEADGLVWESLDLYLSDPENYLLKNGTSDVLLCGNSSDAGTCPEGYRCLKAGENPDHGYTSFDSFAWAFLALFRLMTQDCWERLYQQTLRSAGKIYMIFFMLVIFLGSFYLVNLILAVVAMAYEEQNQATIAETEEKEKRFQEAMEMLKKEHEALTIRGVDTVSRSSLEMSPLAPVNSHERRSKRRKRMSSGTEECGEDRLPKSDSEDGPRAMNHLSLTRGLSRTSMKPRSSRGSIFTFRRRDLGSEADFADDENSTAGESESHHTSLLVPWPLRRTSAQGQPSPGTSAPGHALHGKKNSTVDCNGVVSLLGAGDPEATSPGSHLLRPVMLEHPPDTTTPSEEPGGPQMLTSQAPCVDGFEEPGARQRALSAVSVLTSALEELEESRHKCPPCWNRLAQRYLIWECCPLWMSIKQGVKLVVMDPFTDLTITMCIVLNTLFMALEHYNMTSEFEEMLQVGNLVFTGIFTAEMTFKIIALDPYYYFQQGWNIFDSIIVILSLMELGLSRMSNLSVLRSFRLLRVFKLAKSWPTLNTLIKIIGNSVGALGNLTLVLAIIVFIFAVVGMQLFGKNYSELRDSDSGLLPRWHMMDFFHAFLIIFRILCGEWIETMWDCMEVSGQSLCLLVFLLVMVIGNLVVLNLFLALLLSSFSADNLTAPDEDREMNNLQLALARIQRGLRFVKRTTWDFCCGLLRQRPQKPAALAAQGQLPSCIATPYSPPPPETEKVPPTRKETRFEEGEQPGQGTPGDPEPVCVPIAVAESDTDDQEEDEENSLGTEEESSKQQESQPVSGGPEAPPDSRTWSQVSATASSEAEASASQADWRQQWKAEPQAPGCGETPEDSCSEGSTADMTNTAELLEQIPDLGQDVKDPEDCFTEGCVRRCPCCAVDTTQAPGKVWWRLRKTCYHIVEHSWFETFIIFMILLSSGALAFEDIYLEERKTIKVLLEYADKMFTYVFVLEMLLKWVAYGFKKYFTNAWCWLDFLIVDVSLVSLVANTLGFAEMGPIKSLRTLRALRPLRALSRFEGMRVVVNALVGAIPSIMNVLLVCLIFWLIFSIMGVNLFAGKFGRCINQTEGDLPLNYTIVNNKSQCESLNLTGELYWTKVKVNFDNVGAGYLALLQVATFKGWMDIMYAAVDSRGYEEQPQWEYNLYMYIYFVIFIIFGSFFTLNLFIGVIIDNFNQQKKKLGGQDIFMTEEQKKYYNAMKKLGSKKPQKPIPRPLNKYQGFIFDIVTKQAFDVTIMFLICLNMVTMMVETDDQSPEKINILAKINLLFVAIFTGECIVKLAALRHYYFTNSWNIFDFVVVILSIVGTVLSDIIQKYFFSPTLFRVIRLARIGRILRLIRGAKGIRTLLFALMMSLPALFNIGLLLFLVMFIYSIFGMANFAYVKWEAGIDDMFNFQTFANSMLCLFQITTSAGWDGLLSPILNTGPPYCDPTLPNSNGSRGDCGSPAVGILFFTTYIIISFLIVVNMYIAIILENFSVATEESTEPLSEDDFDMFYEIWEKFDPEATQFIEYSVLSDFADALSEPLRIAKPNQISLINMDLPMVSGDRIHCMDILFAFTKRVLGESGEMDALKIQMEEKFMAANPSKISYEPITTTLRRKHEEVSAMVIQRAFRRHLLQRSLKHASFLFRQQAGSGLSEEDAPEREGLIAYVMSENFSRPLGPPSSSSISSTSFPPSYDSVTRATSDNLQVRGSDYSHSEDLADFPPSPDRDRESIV

As usually defined, the pIC50 is −log10 of the IC50, conventionally taken in molar units. As usually defined, the half-life is the time needed for the level to fall by half in the phase considered. As usually defined, the Kb is the equilibrium dissociation constant of an antagonist, usually derived from a functional assay. For `CCOc1ccccc1OCC1CN(C(=O)OC(OC(=O)[C@@H](N)C(C)C)C(C)C)CCO1` (some centres unmarked) [COMPOUND E], the pIC50 is 4.03 in series [1] (setting [5]), 5.24 in series [1] (setting [6]) and 5.38 in series [3]. In addition, the entries for the “% Remaining at 60 min” value in series [2] and in series [4] were 0.76% and 0.25%, respectively. The half-life at 1 μM in series [2] was 8.9 min; in series [4], 8.3 min. Moreover, the values for the microsomal CLint at 1 μM in series [2] and in series [4] were 155 µL/min/mg and 167 µL/min/mg, respectively. Besides, in series [3], the Kb amounted to 0.63 µM.

For `CCOc1ccccc1OCC1CN(C(=O)OC(C)OC(=O)[C@H](N)C(C)C)CCO1` (some centres unmarked) [COMPOUND D], in series [1] (setting [5]), the pIC50 was under 4.00. In addition, the pIC50 in series [1] (setting [6]) was 4.85. Also, in series [2], the “% Remaining at 60 min” value is reported as 0.00%, the half-life at 1 μM is 1.86 min and the microsomal CLint at 1 μM is 746 µL/min/mg. For the same compound, in series [3], the Kb came out at 0.75 µM and the pIC50 is 5.31. In series [4], the “% Remaining at 60 min” value stood at 3.10%, the half-life at 1 μM came to 12.6 min and the microsomal CLint at 1 μM is 110 µL/min/mg.
